Laboratory results from patent publication US11691972B2, “Compounds for targeted degradation of BRD9” (C4 Therapeutics, Inc., priority 2020, dated 2023).

What follows are molecules tested against T1, BRD9 (Homo sapiens, UniProt Q9H8M2) (assay: HiBiT BRD9 degradation assay in 293T.166 (BRD9-HiBiT) cells). Conditions: Table 1; 293T.166 cells, 2.0 hours; class symbols; read-out: HiBiT-Degradation 293T.166 BRD9 2.0 hours (DC50).
T1 sequence (Q9H8M2 1-597): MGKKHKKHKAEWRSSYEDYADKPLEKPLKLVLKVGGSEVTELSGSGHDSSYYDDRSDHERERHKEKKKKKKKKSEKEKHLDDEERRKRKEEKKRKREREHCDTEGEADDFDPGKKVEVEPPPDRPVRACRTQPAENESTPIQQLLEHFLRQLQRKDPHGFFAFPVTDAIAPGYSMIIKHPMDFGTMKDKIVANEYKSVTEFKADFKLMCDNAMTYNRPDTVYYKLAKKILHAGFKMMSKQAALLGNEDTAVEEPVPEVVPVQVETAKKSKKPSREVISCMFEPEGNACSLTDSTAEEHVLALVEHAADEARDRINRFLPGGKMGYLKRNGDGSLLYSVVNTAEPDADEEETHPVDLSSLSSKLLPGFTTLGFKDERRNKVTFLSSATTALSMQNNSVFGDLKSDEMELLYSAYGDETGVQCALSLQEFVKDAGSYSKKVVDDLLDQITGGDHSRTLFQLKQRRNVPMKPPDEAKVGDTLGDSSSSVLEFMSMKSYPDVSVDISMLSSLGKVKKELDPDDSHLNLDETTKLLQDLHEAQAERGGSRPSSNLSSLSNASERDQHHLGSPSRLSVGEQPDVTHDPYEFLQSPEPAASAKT
Type: cell-based
Set-up: endogenously expressing BRD9 with HiBiT fusion tag via CRISPR; host or cells: 293T.166 (BRD9-HiBiT), also expressing LgBiT ectopically
In short: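 Luminescence from the Nano-Glo HiBiT lytic reagent quantified BRD9 loss after compounds (top 10 μM, half-log, 11 points, duplicates) were incubated 2 h at 37° C. with 10,000 293T.166 BRD9-HiBiT/LgBiT cells per well, with controls lacking compound or lacking reagent.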

**Q.** For COc1cc(-c2cn(C)c(=O)c3cnccc23)cc(Cl)c1C(=O)N1CCC(CCC2CCN(c3ccc(NC4CCC(=O)NC4=O)cc3C(F)(F)F)CC2)CC1 (stereo not drawn) [Compound 242], which DC50 is on record?
**A.** < 100 nM

**Q.** COc1cc(-c2cn(C)c(=O)c3[nH]ncc23)cc(OC)c1CN1CCN(C(=O)CN2CCN(c3ccc(NC4CCC(=O)NC4=O)cc3F)CC2)C(C)(C)C1 (stereo not drawn) [Compound 111, 3-[4-[4-[2-[4-[[2,6-dimethoxy-4-(6-methyl-7-oxo-1H-pyrazolo[3,4-c]pyridin-4-yl)phenyl]methyl]-2,2-dimethyl-piperazin-1-yl]-2-oxo-ethyl]piperazin-1-yl]-3-fluoro-anilino]piperidine-2,6-dione] was tested. Which DC50 did it give?
**A.** < 100 nM

**Q.** How did the DC50 turn out when Cc1c(-c2ccc(C(=O)N3CCC(N(C)C(=O)N4CCC(c5ccc(NC6CCC(=O)NC6=O)cc5)CC4)CC3)c(OC(F)(F)F)c2)cn(C)c(=O)c1C (stereo not drawn) [Compound 129] was run?
**A.** < 100 nM

**Q.** For COc1cc(-c2cn(C)c(=O)c3[nH]ncc23)cc(Cl)c1CN1CCc2c(cccc2NC2CCN(c3ccc(NC4CCC(=O)NC4=O)cc3)CC2)C1 (stereo not drawn) [Compound 171, 3-[4-[4-[[2-[[2-chloro-6-methoxy-4-(6-methyl-7-oxo-1H-pyrazolo[3,4-c]pyridin-4-yl)phenyl]methyl]-3,4-dihydro-1H-isoquinolin-5-yl]amino]-1-piperidyl]anilino]piperidine-2,6-dione], which DC50 is on record?
**A.** < 100 nM

**Q.** How did the DC50 turn out when COc1cc(-c2cn(C)c(=O)c3[nH]ncc23)cc(F)c1C(=O)N1CCC(N(C)C(=O)N2CCC(c3ccc(NC4CCC(=O)NC4=O)cc3)CC2)CC1 (stereo not drawn) [Compound 134] was run?
**A.** < 100 nM

**Q.** How did the DC50 turn out when CC(c1ccc(-c2cn(C)c(=O)c3cc(F)ccc23)cc1OC(F)(F)F)N1CCC(C2CCN(c3ccc(NC4CCC(=O)NC4=O)cc3F)CC2)CC1 (stereo not drawn) [Compound 93] was run?
**A.** < 100 nM

**Q.** For CN(C(=O)N1CCC(c2ccc(NC3CCC(=O)NC3=O)cc2F)CC1)C1CCN(C(=O)c2ccc(-c3cn(C)c(=O)c4cnccc34)cc2OC(F)(F)F)CC1 (stereo not drawn) [Compound 138], which DC50 is on record?
**A.** < 100 nM

**Q.** For COc1cc(-c2cn(C)c(=O)c3cnccc23)cc(Cl)c1C(=O)N1CCc2c(CC3CCN(c4ccc(NC5CCC(=O)NC5=O)cc4F)CC3)cccc2C1 (stereo not drawn) [Compound 235], which DC50 is on record?
**A.** < 100 nM

**Q.** Which DC50 does the source give for COc1cc(-c2cn(C)c(=O)c(C)c2C)cc(OC)c1CN1CCN(C(=O)CC2CCN(c3ccc(NC4CCC(=O)NC4=O)cc3C(F)(F)F)CC2)CC12CC2 (stereo not drawn) [Compound 60] here?
**A.** < 100 nM

**Q.** Cn1cc(-c2ccc(CN3CCN(C(=O)CN4CCC(c5ccc(NC6CCC(=O)NC6=O)cc5)CC4)CC3)c(OC(F)(F)F)c2)c2ccc(F)cc2c1=O (stereo not drawn) [Compound 36] was tested. Which DC50 did it give?
**A.** < 100 nM

**Q.** For COc1cc(CN2CCN(C(=O)CN3CCC(c4ccc(NC5CCC(=O)NC5=O)cc4)CC3)CC2)c(OCC(F)F)cc1-c1cn(C)c(=O)c2[nH]ncc12 (stereo not drawn) [Compound 25], which DC50 is on record?
**A.** < 100 nM

**Q.** Which DC50 does the source give for COc1cc(-c2cn(C)c(=O)c(C)c2C)cc(Cl)c1CN1CCC(F)(CCC2CCN(c3ccc(NC4CCC(=O)NC4=O)cc3F)CC2)CC1 (stereo not drawn) [Compound 153] here?
**A.** < 100 nM

**Q.** CN(C(=O)N1CCC(c2ccc(NC3CCC(=O)NC3=O)cc2)CC1)C1CCN(C(=O)c2ccc(-c3cn(C)c(=O)c4ccccc34)cc2OC(F)(F)F)CC1 (stereo not drawn) [Compound 127] was tested. Which DC50 did it give?
**A.** < 100 nM

**Q.** For COc1cc(-c2cn(C)c(=O)c3[nH]ncc23)cc(F)c1C(=O)N1CCN(C(=O)CN2CCC(c3ccc(NC4CCC(=O)NC4=O)cc3)CC2)CC1 (stereo not drawn) [Compound 47], which DC50 is on record?
**A.** < 100 nM

**Q.** COc1cc(-c2cn(C)c(=O)c3cnccc23)cc(Cl)c1C=C1CCN(C(=O)CC2CCN(c3ccc(NC4CCC(=O)NC4=O)cc3F)CC2)CC1 (stereo not drawn) [Compound 161, 3-[4-[4-[2-[4-[[2-chloro-6-methoxy-4-(2-methyl-1-oxo-2,7-naphthyridin-4-yl)phenyl]methylene]-1-piperidyl]-2-oxo-ethyl]-1-piperidyl]-3-fluoro-anilino]piperidine-2,6-dione] was tested. Which DC50 did it give?
**A.** < 100 nM

**Q.** With CC(c1ccc(-c2cn(C)c(=O)c3cnccc23)cc1OC(F)(F)F)N1CCC(C2CCN(c3ccc(NC4CCC(=O)NC4=O)cc3F)CC2)CC1 (stereo not drawn) [Compound 92] as the molecule, how does the DC50 read?
**A.** < 100 nM

**Q.** COc1cc(-c2cn(C)c(=O)c(C)c2C)cc(F)c1CN1CCC(C2CCN(c3ccc(NC4CCC(=O)NC4=O)cc3C(F)(F)F)CC2)CC1 (stereo not drawn) [Compound 86] was tested. Which DC50 did it give?
**A.** < 100 nM

**Q.** With CN(C(=O)N1CCC(c2ccc(NC3CCC(=O)NC3=O)cc2)CC1)C1CCN(C(=O)c2ccc(-c3cn(C)c(=O)c4cc(F)ccc34)cc2OC(F)(F)F)CC1 (stereo not drawn) [Compound 131] as the molecule, how does the DC50 read?
**A.** < 100 nM

**Q.** How did the DC50 turn out when CN(C(=O)N1CCC(c2ccc(NC3CCC(=O)NC3=O)cc2)CC1)C1CCN(Cc2ccc(-c3cn(C)c(=O)c4[nH]ncc34)cc2OC(F)(F)F)CC1 (stereo not drawn) [Compound 116] was run?
**A.** < 100 nM

**Q.** COc1cc(-c2cn(C)c(=O)c(C)c2C)cc(OC)c1CN1CCc2c(CC3CCN(c4ccc(NC5CCC(=O)NC5=O)cc4C(F)(F)F)CC3)cccc2C1 (stereo not drawn) [Compound 108] was tested. Which DC50 did it give?
**A.** < 100 nM

**Q.** How did the DC50 turn out when COc1cc(-c2cn(C)c(=O)c3[nH]ncc23)cc(OC)c1CNC1CN(CC(=O)N2CCC(c3ccc(NC4CCC(=O)NC4=O)cc3)CC2)C1 (stereo not drawn) [Compound 38] was run?
**A.** 100 to 500 nM

**Q.** With COc1cc(-c2cn(C)c(=O)c3[nH]ncc23)cc(F)c1CN1CCN(C(=O)CN2CCC(c3ccc(NC4CCC(=O)NC4=O)cc3)CC2)CC1 (stereo not drawn) [Compound 9] as the molecule, how does the DC50 read?
**A.** < 100 nM

**Q.** With COc1cc(-c2cn(C)c(=O)c3[nH]ncc23)cc(Cl)c1CN1CCN(C(=O)CC2CCN(c3ccc(NC4CCC(=O)NC4=O)cc3F)CC2)CC1 (stereo not drawn) [Compound 66] as the molecule, how does the DC50 read?
**A.** < 100 nM

**Q.** How did the DC50 turn out when COc1cc(-c2cn(C)c(=O)c(C)c2C)cc(OC)c1C=C1CCN(C(=O)CC2CCN(c3ccc(NC4CCC(=O)NC4=O)cc3F)CC2)CC1 (stereo not drawn) [Compound 162] was run?
**A.** < 100 nM

**Q.** With COc1cc(-c2cn(C)c(=O)c3cnccc23)cc(Cl)c1C(=O)N1CCC(C2CCN(c3ccc(NC4CCC(=O)NC4=O)nc3)CC2)CC1 (stereo not drawn) [Compound 221] as the molecule, how does the DC50 read?
**A.** < 100 nM

**Q.** With COc1cc(-c2cn(C)c(=O)c3cnccc23)cc(Cl)c1C(=O)N1CCC(N2CCC(c3ccc(NC4CCC(=O)NC4=O)cc3)C(F)(F)C2)CC1 (stereo not drawn) [Compound 228] as the molecule, how does the DC50 read?
**A.** < 100 nM

**Q.** COc1cc(-c2cn(C)c(=O)c3cnccc23)cc(Cl)c1C(=O)N1CCC(N(C)C(=O)N2CCC(c3ccc(NC4CCC(=O)NC4=O)cc3)CC2)CC1 (stereo not drawn) [Compound 126, N-[1-[2-chloro-6-methoxy-4-(2-methyl-1-oxo-2,7-naphthyridin-4-yl)benzoyl]-4-piperidyl]-4-[4-[(2,6-dioxo-3-piperidyl)amino]phenyl]-N-methyl-piperidine-1-carboxamide] was tested. Which DC50 did it give?
**A.** < 100 nM

**Q.** With COc1cc(-c2cn(C)c(=O)c3[nH]ncc23)cc(Cl)c1CN1CCN(C(=O)CN2CCC(c3ccc(NC4CCC(=O)NC4=O)cc3)C(F)(F)C2)CC1 (stereo not drawn) [Compound 34] as the molecule, how does the DC50 read?
**A.** < 100 nM

**Q.** With COc1cc(-c2cn(C)c(=O)c3[nH]ncc23)cc(OC)c1CN1C[C@@H]2C[C@H]1CN2C(=O)CN1CCC(c2ccc(NC3CCC(=O)NC3=O)cc2)CC1 (stereo partly drawn) [Compound 13] as the molecule, how does the DC50 read?
**A.** < 100 nM

**Q.** For COc1cc(-c2cn(C)c(=O)c(C)c2C)cc(Cl)c1CN1CCC(F)(C2CCN(c3ccc(NC4CCC(=O)NC4=O)cc3F)CC2)CC1 (stereo not drawn) [Compound 245], which DC50 is on record?
**A.** < 100 nM

**Q.** Which DC50 does the source give for Cc1c(-c2ccc(C(=O)N3CCC(C4CCN(c5ccc(NC6CCC(=O)NC6=O)cc5F)CC4)CC3)c3[nH]ccc23)cn(C)c(=O)c1C (stereo not drawn) [Compound 217] here?
**A.** < 100 nM

**Q.** With COc1cc(-c2cn(C)c(=O)c(C)c2C)cc(Cl)c1CN1CCC(C2CCN(c3ccc(NC4CCC(=O)NC4=O)cc3F)CC2)C(F)(F)C1 (stereo not drawn) [Compound 197, 3-[4-[4-[1-[[2-chloro-6-methoxy-4-(1,4,5-trimethyl-6-oxo-3-pyridyl)phenyl]methyl]-3,3-difluoro-4-piperidyl]-1-piperidyl]-3-fluoro-anilino]piperidine-2,6-dione] as the molecule, how does the DC50 read?
**A.** < 100 nM

**Q.** COc1cc(-c2cn(C)c(=O)c3[nH]ncc23)cc(Cl)c1CN1CCC(F)(CCC2CCN(c3ccc(NC4CCC(=O)NC4=O)cc3F)CC2)CC1 (stereo not drawn) [Compound 151, 3-[4-[4-[2-[1-[[2-chloro-6-methoxy-4-(6-methyl-7-oxo-1H-pyrazolo[3,4-c]pyridin-4-yl)phenyl]methyl]-4-fluoro-4-piperidyl]ethyl]-1-piperidyl]-3-fluoro-anilino]piperidine-2,6-dione] was tested. Which DC50 did it give?
**A.** < 100 nM

Same assay, conditions: Table 2; 293T.166 cells, 2.0 hours; class symbols; read-out: HiBiT-Degradation 293T.166 BRD9 2.0 hours (DC50)

**Q.** With COc1cc(-c2cn(C)c(=O)c(C)c2C)cc(Cl)c1CN1CCC(C2CCN(c3ccc(NC4CCC(=O)NC4=O)cc3F)CC2)C(F)(F)C1 (single isomer, unassigned) [Compound 259] as the molecule, how does the DC50 read?
**A.** < 100 nM

**Q.** Which DC50 does the source give for COc1cc(-c2cn(C)c(=O)c(C)c2C)cc(Cl)c1CN1CCc2c(CC3CCN(c4ccc(NC5CCC(=O)NC5=O)nc4)CC3)cccc2C1 (stereo not drawn) [Compound 264, 3-[[5-[4-[[2-[[2-chloro-6-methoxy-4-(1,4,5-trimethyl-6-oxo-3-pyridyl)phenyl]methyl]-3,4-dihydro-1H-isoquinolin-5-yl]methyl]-1-piperidyl]-2-pyridyl]amino]piperidine-2,6-dione] here?
**A.** < 100 nM

**Q.** How did the DC50 turn out when C/C=C/Cn1cc(-c2cc(Cl)c(CN3CCC(N4CCN(c5ccc(NC6CCC(=O)NC6=O)cc5F)CC4)C(F)(F)C3)c(OC)c2)c2ccncc2c1=O (stereo not drawn) [Compound 266] was run?
**A.** < 100 nM
